Results: patent US20220339110A1, “FAST CONSOLIDATING COMPOUNDS” (Universität Innsbruck, priority 2019, published 2022)

How the values were obtained:
Format in all cases: physicochemical
[1] = Moulding process: time to stable tablets (consolidation/solidification time) and liquid amount after wetting the powder; conditions: for consolidation/solidification time (in words): wetted with water
Description: α-Lactose anhydrate was transferred into wells of a moulding form and wetted with pure water and water/alcohol mixtures, as shown in FIG. 2. Pure water and aqueous EtOH solutions, 25% (v/v) and 50% EtOH (v/v), ratio by volume, were used as solvents. These experiments were performed to measure the time needed for the formation of stable tablets, to determine the optimal amount of solvent, and to determine the optimal water:alcohol ratio in water/alcohol mixtures.
The solidification time (time until the tablets show sufficient hardness for handling) after addition of the solvent was determined using pure water and an aqueous glucose solution. It was observed that the solidification time of anhydrous glucose is much shorter when glucose solutions are applied instead of pure water. Glucose anhydrate solidifies after 10-15 min when water is used but hardens within 2-6 minutes after the application of glucose solutions. The amount of glucose in the solution is less critical for the solidification time, a concentration of 25 wt % is sufficient.
The moulding form tests were carried out with two different solvents: a) water and b) 50% EtOH (v/v) solution.
In a first experiment, tablets with amorphous Ca-L-Lactate (L-CaLac) using pure water were produced.
Wetting partly anhydrous MgSO4 (7 wt % water content) with pure water results in solid tablets. After 5 minutes the tablets can be unbaged from the moulding form. The wettability is not as good as for the α-lactose powders. About 50-60 μl water were added per 100 mg powder. By using a saturated aqueous solution of MgSO4 the hardening time could be halved (2-3 minutes).

[2] = Drug load capacity test of moulded tablets with glass beads (Spheriglass 2429); conditions: for Consolidation time / Consolidation time (in words): loaded with glass beads; for time to solid/stable tablets (in words): mixture with Spheriglass 2429 (50 wt % where stated), water
From the text: As model substance for the drug load capacity test, Spheriglass 2429 (glass beads, Potters Europe) was used, because there are no interactions between the glass beads and lactose to exclude other effects. Spheriglass 2429 has a particle size distribution of 53-106 μm. It was mixed with refluxed and sieved Spherolac 100 anhydrate (Spherolac 100 AH) (<250 μm) in a ratio of 30 and 60 wt %. […] The higher the amount of Spheriglass 2429 the less binder solution is needed, because of the decreasing amounts of water binding excipients.
A mixture of 50 wt % anhydrous glucose and 50 wt % Spheriglass 2429 was wetted with a 25 wt % glucose solution and pure water. The aim of this experiment was to investigate if the consolidation time is slowed down by loading a slower solidifying hydrate (in comparison to α-Lactose anhydrate) with a non-matrix-forming substance. […] The advantages of the use of glucose are rather seen as additive to other fast consolidating excipients to improve or modify the consolidation process, its rate, and the properties of the product.

[3] = Permanent stability of Na2SO4 tablets with binder in the wetting liquid
Description: Attempts were undertaken to ensure the permanent stability of the Na2SO4 (decahydrate) tablets by adding binder polymers to the wetting liquid. Amounts of 5 wt % and 7.5 wt % aqueous PVA 388 solutions were tested. […] The tests show the possibility of a new approach: rapid solidification by hydrate formation and permanent stability through additional binders.

[4] = Tablet hardness, three-point-break tester; conditions: 200 mg
Description: The tablet hardness was measured with a three-point-break tester by Charles Ischi AG (HC 6.2 50 N).

[5] = Mercury intrusion porosimetry of lactose tablets
Description: The porosity, ratio between the sample void volumes and its external volume, of a tablet should be high if a fast disintegration is desired (e.g. for sublingual tablets). Porosity was measured using mercury porosimetry. For a complete mercury intrusion porosimetry (MIP) measurement, two different porosimeter types are needed—a low-pressure porosimeter (LP-MIP) and a high-pressure porosimeter (HP-MIP). As the LP-MIP, Pascal 140 (Thermo Fisher Scientific, I-Milano) was used and the Porosimeter 2000 (Carlo Erba, I-Milano) as the HP-MIP. Pure Spherolac 100 was used for the experiments.

[6] = Disintegration time of lactose tablets
From the text: Mercury porosimetry of the 3D-powder printed tablet indicated a porosity of 63.8% and an average pore radius of 48 Micron. […] Also the tablets produced by the molding process show porosities around 50% whereas those of the pressed tablets are much smaller. The high porosity guarantees a fast intrusion of fluids into the tablet and is thus an important prerequisite of a fast disintegration.

[7] = Mercury intrusion porosimetry of lactose tablets; conditions: 3D-powder printed tablet; calculated value
[8] = 50 wt % Spheriglass 2429, 25 wt % glucose solution and pure water
[9] = 5 wt % PVA 388 in 50% EtOH (v/v)
[10] = 7.5 wt % PVA 388 in 50% EtOH (v/v)
[11] = 10 wt % PVA 388 in 50% EtOH (v/v)
[12] = production method: 3D-powder printing
[13] = production method: moulding process
[14] = production method: compaction 10 kN
[15] = production method: compaction 30 kN

C[C@H](O)C(=O)[O-].C[C@H](O)C(=O)[O-].[Ca+2] [Ca-Lactate anhydrate, anhydrous Ca-Lactate]
Consolidation time ([1]; solution: water): 1 to 2 min
consolidation/solidification time (in words) [1]: within one minute
solidification time ([2]; 50 wt % Spheriglass 2429, 50% EtOH (v/v) binder solution): ca. 45 min
Consolidation time ([2]; solvent H2O): 1 to 2 min

O.O=S(=O)([O-])[O-].O=S(=O)([O-])[O-].[Ca+2].[Ca+2] [Calcium sulphate hemihydrate, reference compound]
Consolidation time ([1]; solution: water): ca. 35 min

OC[C@H]1OC(O)[C@H](O)[C@@H](O)[C@@H]1O (some centres unmarked) [Glucose anhydrate]
solidification time ([1]; glucose solutions applied): 2 to 6 min
Consolidation time ([1]; solution: aqueous glucose solution (25-50 wt %)): 2 to 6 min
Consolidation time ([1]; solution: water): ca. 10 min
solidification time ([1]; water): 10 to 15 min
state of tablets after 10 minutes [2, 8]: still rather soft
time after which tablets could be removed (in words) [2, 8]: After four minutes
Consolidation time ([2]; solvent H2O): >10 min

O=C([O-])CC(O)(CC(=O)[O-])C(=O)[O-].O=C([O-])CC(O)(CC(=O)[O-])C(=O)[O-].[Mg+2].[Mg+2].[Mg+2] [Mg Citrate anhydrate, anhydrous Mg Citrate]
time to stable tablets ([1]; pure water, with seed crystals of the dodecahydrate (about 2%)): 1 to 4 min
Consolidation time ([1]; solution: water): 1 to 4 min
solidification time ([1]; without seed crystals): about 4 min
time to stable tablets ([2]; 50% wt Spheriglass 2429, wetting with water): ≥ 10 min
Consolidation time ([2]; solvent H2O): >10 min

O=S(=O)([O-])[O-].[Mg+2] [MgSO4 anhydrate]
Consolidation time (in words) ([1]; solution: water): few seconds
consolidation/solidification time (in words) [1]: within a few seconds
Consolidation time (in words) ([2]; solvent H2O): few seconds
time to solid/stable tablets (in words) [2]: after a few seconds

O=S(=O)([O-])[O-].[Na+].[Na+] [Na2SO4 anhydrate]
Consolidation time (in words) ([1]; 50% EtOH (v/v) solution): within one minute
Consolidation time (in words) ([1]; solution: water): few seconds
consolidation/solidification time (in words) [1]: within a few seconds
Consolidation time (in words) ([2]; solvent H2O): few seconds
time to solid/stable tablets (in words) [2]: within a few seconds
mechanical stability of tablets (in words) ([3]; 7.5 wt % aqueous PVA 388 solution, after drying two and a half days at 22° C. or 40° C.): mechanically stable tablets
mechanical stability of tablets the next day (in words) ([3]; wetted with 5 wt % aqueous PVA 388 solution): still could be easily crushed

OC[C@H]1O[C@H](OC[C@H]2O[C@H](O[C@]3(CO)O[C@H](CO)[C@@H](O)[C@@H]3O)[C@H](O)[C@@H](O)[C@@H]2O)[C@H](O)[C@@H](O)[C@H]1O [Raffinose anhydrate]
Consolidation time (in words) ([1]; 50% EtOH (v/v) solution): about four to five minutes
Consolidation time (in words) ([1]; solution: water): few seconds
consolidation/solidification time (in words) [1]: within a few seconds
Consolidation time ([2]; solvent H2O): 2 min
Consolidation time ([2]; solvent H2O/EtOH 1:1): 4 min
time to solid/stable tablets (in words) [2]: Two minutes
time after which tablets could be removed ([2]; with Spheriglass, 50% EtOH (v/v) solution): 2 to 4 min

OC[C@H]1O[C@@H](O[C@H]2[C@H](O)[C@@H](O)[C@@H](O)O[C@@H]2CO)[C@H](O)[C@@H](O)[C@H]1O [Spherolac 100 AH]
Average hardness of tablet [4, 9]: 10.45 N
Average hardness of tablet ([4]; 5 wt % aq. PVA 388): 8.65 N
Average hardness of tablet [4, 10]: 16.75 N
Average hardness of tablet ([4]; 7.5 wt % aq. PVA 388): 12.2 N
Average hardness of tablet [4, 11]: 20.2 N
Average hardness of tablet ([4]; 10 wt % aq. PVA 388): 14.75 N
Average hardness of tablet ([4]; binder solution: water): 9.4 N
time to stable tablets after wetting (in words) ([2]; mixed with Spheriglass 2429 at 30 and 60 wt %): within a few seconds
Average Pore Radius ([5]; 3D-powder printed tablet): 48 Micron
porosity (mercury porosimetry) ([5]; 3D-powder printed tablet): 63.8%
Average Pore Radius [5, 12]: 48 μm
Porosity [5, 12]: 63.8%
Average Pore Radius [5, 13]: 2.4 μm
Porosity [5, 13]: 49%
Porosity ([5]; tablets produced by the molding process): around 50%
disintegration time (in words) ([6]; printed tablets): few seconds
calculated porosity [7]: 71.3%

O.OC[C@H]1O[C@@H](O[C@H]2[C@H](O)[C@@H](O)[C@@H](O)O[C@@H]2CO)[C@H](O)[C@@H](O)[C@H]1O [Spherolac 100 MH, α-Lactose monohydrate]
Average hardness of tablet [4, 9]: 5.85 N
Average hardness of tablet [4, 10]: 8.1 N
Average hardness of tablet [4, 11]: 13.1 N
Average Pore Radius [5, 14]: 0.6 μm
Porosity [5, 14]: 12%
Average Pore Radius [5, 15]: 0.2 μm
Porosity [5, 15]: 5%
disintegration time (in words) ([6]; tablets produced at compaction pressure of 30 kN): several minutes

OC[C@H]1O[C@@H](O[C@H]2[C@H](O)[C@@H](O)[C@@H](O)O[C@@H]2CO)[C@H](O)[C@@H](O)[C@H]1O [Stable α-Lactose anhydrate]
Consolidation time ([1]; solution: water): 0.083 to 0.167 min
time to stable tablets ([1]; water/alcohol mixtures (25% and 50% EtOH v/v)): more than 10 seconds
time to stable tablets ([1]; wetting with pure water): 0.083 to 0.167 min
Consolidation time (in words) ([2]; solvent H2O): few seconds
Consolidation time (in words) ([2]; solvent H2O/EtOH 1:1): few seconds
